Experimental findings from ChEMBL document CHEMBL1148597, “New tyrosinase inhibitors selected by atomic linear indices-based classification models” (Bioorg Med Chem Lett, 2006) are described below.

For this assay, the target named is T1, Tyrosinase (Homo sapiens, UniProt P14679).
T1 sequence (P14679 whole entry): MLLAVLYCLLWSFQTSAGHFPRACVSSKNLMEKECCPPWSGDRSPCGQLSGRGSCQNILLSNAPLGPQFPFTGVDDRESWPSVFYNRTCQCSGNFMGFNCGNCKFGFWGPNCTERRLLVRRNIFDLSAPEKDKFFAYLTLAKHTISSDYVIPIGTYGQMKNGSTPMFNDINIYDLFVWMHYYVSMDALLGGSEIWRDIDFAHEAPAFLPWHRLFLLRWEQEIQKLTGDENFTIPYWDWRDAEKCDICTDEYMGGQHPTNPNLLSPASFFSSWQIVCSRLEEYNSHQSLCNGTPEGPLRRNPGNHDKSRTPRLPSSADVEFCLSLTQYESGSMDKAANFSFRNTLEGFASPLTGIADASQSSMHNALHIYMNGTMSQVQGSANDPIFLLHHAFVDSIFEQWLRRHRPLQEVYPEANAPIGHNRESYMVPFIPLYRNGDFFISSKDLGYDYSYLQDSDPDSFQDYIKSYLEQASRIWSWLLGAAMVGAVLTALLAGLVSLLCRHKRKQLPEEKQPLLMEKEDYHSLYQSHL
Kind of assay: Inhibitory activity against tyrosinase.
As a reminder, the IC50 is the midpoint of a concentration-inhibition curve. Lower therefore signals higher potency. The compound `CC(C)(O)[C@@H]1CC[C@](C)([C@H]2[C@@H](O)C[C@@]3(C)[C@@H]4C[C@H](O[C@@H]5OC[C@@H](O)[C@H](O)[C@H]5O)[C@H]5C(C)(C)[C@@H](O[C@@H]6OC[C@@H](O)[C@H](O)[C@H]6O[C@@H]6OC[C@H](O)[C@H](O)[C@H]6O)CC[C@@]56C[C@@]46CC[C@]23C)O1` [ASKENDOSIDE D] had an IC50 of 48.9 µM.
In turn, `CC(C)(O)[C@@H]1CC[C@](C)([C@H]2[C@@H](O)C[C@@]3(C)[C@@H]4C[C@H](O[C@H]5O[C@@H](CO)[C@H](O)[C@H](O)[C@@H]5O)[C@H]5C(C)(C)[C@@H](O[C@@H]6OC[C@@H](O)[C@H](O)[C@H]6O)CC[C@@]56C[C@@]46CC[C@]23C)O1` [CYCLOSIEVERSIOSIDE] registered an IC50 of 92.3 µM.
In turn, `CC(=O)O[C@@H]1[C@@H](O[C@@H]2OC[C@H](O)[C@H](O)[C@H]2O)[C@H](O[C@H]2CC[C@]34C[C@]35CC[C@]3(C)[C@@H]([C@@]6(C)CC[C@H](C(C)(C)O)O6)[C@@H](O)C[C@@]3(C)[C@@H]5C[C@H](O[C@@H]3OC[C@@H](O)[C@H](O)[C@H]3O)[C@H]4C2(C)C)OC[C@H]1O` [ASKENDOSIDE B] showed an IC50 of 13.9 µM.
In turn, `CC(C)(O)CCC(=O)[C@@](C)(O)[C@H]1[C@H](O)C[C@@]2(C)[C@@H]3CC=C4[C@@H](C=C(O[C@@H]5O[C@H](CO)[C@@H](O)[C@H](O)[C@H]5O)C(=O)C4(C)C)[C@]3(C)C(=O)C[C@]12C` [BRYOAMARIDE] gave a 50% inhibitory concentration (IC50) of 85 µM.
Regarding `C[C@@H]1C[C@H]2O[C@]3(C[C@@]4(C)[C@@H]5[C@@H](O)C[C@H]6C(C)(C)[C@@H](O[C@@H]7OC[C@@H](O)[C@H](O)[C@H]7O)CC[C@@]67C[C@@]57CC[C@]4(C)[C@@H]13)O[C@@H]2C(C)(C)O[C@@H]1O[C@H](CO)[C@@H](O)[C@H](O)[C@H]1O` [CYCLOORBICOSIDE G], the IC50 was 54.6 µM. Compared with the last compound, the IC50 is about 1.6-fold lower.
The result for `C[C@@H]1O[C@@H](O[C@H]2C[C@@H]3[C@]4(CC[C@]5(C)[C@@H]([C@@]6(C)CC[C@@H](C(C)(C)O)O6)[C@@H](O)C[C@@]35C)C[C@@]43CC[C@H](O[C@@H]4OC[C@@H](O)[C@H](O)[C@H]4O)C(C)(C)[C@H]23)[C@H](O)[C@H](O)[C@H]1O` [CYCLOCARPOSIDE] reads 102 µM.
